Results taken from ChEMBL document CHEMBL1201862, “PubChem BioAssay data set” (2004).
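Tested at 5 concentrations; 48 h exposure; 96-well plates; endpoints linearly interpolated, else capped at highest concentration. The concentration for 50% growth inhibition is given as GI50.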 Activity calls are given as the source filed them. Cut-off read from the data, not from the text of the source: active = GI50 up to about 1.1 µM and inactive = higher.

What was measured:
Assay in all cases: NCI anticancer screen, dose series, 48 h
A549 = tested on: A549
ACHN = tested on: ACHN
CAKI-1 = tested on: CAKI-1
CCRF-CEM = tested on: CCRF-CEM
COLO 205 = tested on: COLO 205
DMS-114 = tested on: DMS-114
EKVX = tested on: EKVX
HCC 2998 = tested on: HCC 2998
HCT-116 = tested on: HCT-116
HL-60 = tested on: HL-60
HOP-62 = tested on: HOP-62
HOP-92 = tested on: HOP-92
HT-29 = tested on: HT-29
IGROV-1 = tested on: IGROV-1
K562 = tested on: K562
KM-20L2 = tested on: KM-20L2
KM12 = tested on: KM12
LXFL 529 = tested on: LXFL 529
M14 = tested on: M14
M19-MEL = tested on: M19-MEL
MOLT-4 = tested on: MOLT-4
NCI-H226 = tested on: NCI-H226
NCI-H23 = tested on: NCI-H23
NCI-H460 = tested on: NCI-H460
OVCAR-3 = tested on: OVCAR-3
OVCAR-8 = tested on: OVCAR-8
RPMI-8226 = tested on: RPMI-8226
RXF 393 = tested on: RXF 393
SF-268 = tested on: SF-268
SF-295 = tested on: SF-295
SF-539 = tested on: SF-539
SK-MEL-28 = tested on: SK-MEL-28
SK-MEL-2 = tested on: SK-MEL-2
SK-MEL-5 = tested on: SK-MEL-5
SNB-19 = tested on: SNB-19
SNB-75 = tested on: SNB-75
SW-620 = tested on: SW-620
TK-10 = tested on: TK-10
UACC-257 = tested on: UACC-257
UACC-62 = tested on: UACC-62
UO-31 = tested on: UO-31
786-0 = tested on: 786-0
A498 = tested on: A498
DLD-1 = tested on: DLD-1
DMS-273 = tested on: DMS-273
HCT-15 = tested on: HCT-15
LOX IMVI = tested on: LOX IMVI
Malme-3M = tested on: Malme-3M
NCI-H522 = tested on: NCI-H522
OVCAR-4 = tested on: OVCAR-4
OVCAR-5 = tested on: OVCAR-5
SK-OV-3 = tested on: SK-OV-3
SN12C = tested on: SN12C
SNB-78 = tested on: SNB-78
U-251 = tested on: U-251
XF498 = tested on: XF498

SMILES: C/N=c1/ssc(=S)n1C(C)C
- GI50 (A549): 25.6 µM (inactive)
- GI50 (ACHN): 20.8 µM (inactive)
- GI50 (CAKI-1): 21.7 µM (inactive)
- GI50 (CCRF-CEM): 0.673 µM (active)
- GI50 (COLO 205): 16.1 µM (inactive)
- GI50 (DMS-114): 3.13 µM (inactive)
- GI50 (EKVX): 57.8 µM (inactive)
- GI50 (HCC 2998): 13.9 µM (inactive)
- GI50 (HCT-116): 19.7 µM (inactive)
- GI50 (HL-60): 2.3 µM (inactive)
- GI50 (HOP-62): 18.9 µM (inactive)
- GI50 (HOP-92): 14.3 µM (inactive)
- GI50 (HT-29): 3.3 µM (inactive)
- GI50 (IGROV-1): 17.5 µM (inactive)
- GI50 (K562): 3.06 µM (inactive)
- GI50 (KM-20L2): 16.7 µM (inactive)
- GI50 (KM12): 25.2 µM (inactive)
- GI50 (LXFL 529): 4.18 µM (inactive)
- GI50 (M14): 12.8 µM (inactive)
- GI50 (M19-MEL): 13.7 µM (inactive)
- GI50 (MOLT-4): 10.8 µM (inactive)
- GI50 (NCI-H226): 56.2 µM (inactive)
- GI50 (NCI-H23): 12.2 µM (inactive)
- GI50 (NCI-H460): 24.2 µM (inactive)
- GI50 (OVCAR-3): 12.4 µM (inactive)
- GI50 (OVCAR-8): 25.6 µM (inactive)
- GI50 (RPMI-8226): 11.6 µM (inactive)
- GI50 (RXF 393): 7.5 µM (inactive)
- GI50 (SF-268): 33.8 µM (inactive)
- GI50 (SF-295): 33.9 µM (inactive)
- GI50 (SF-539): 25.8 µM (inactive)
- GI50 (SK-MEL-28): 1.4 µM (inactive)
- GI50 (SK-MEL-2): 42 µM (inactive)
- GI50 (SK-MEL-5): 19.8 µM (inactive)
- GI50 (SNB-19): > 100 µM (inactive)
- GI50 (SNB-75): 1.11 µM (active)
- GI50 (SW-620): 4.24 µM (inactive)
- GI50 (TK-10): 44.6 µM (inactive)
- GI50 (UACC-257): 14.5 µM (inactive)
- GI50 (UACC-62): 12 µM (inactive)
- GI50 (UO-31): 37.7 µM (inactive)

SMILES: CNC(=O)N(CCCC(NC(C)=O)C(=O)NCc1ccccc1)Cc1ccccc1 (stereo not given)
- GI50 (786-0): > 100 µM (inactive)
- GI50 (A498): > 100 µM (inactive)
- GI50 (A549): > 100 µM (inactive)
- GI50 (ACHN): > 100 µM (inactive)
- GI50 (CAKI-1): > 100 µM (inactive)
- GI50 (CCRF-CEM): > 100 µM (inactive)
- GI50 (COLO 205): > 100 µM (inactive)
- GI50 (DLD-1): > 100 µM (inactive)
- GI50 (DMS-114): > 100 µM (inactive)
- GI50 (DMS-273): > 100 µM (inactive)
- GI50 (EKVX): > 100 µM (inactive)
- GI50 (HCC 2998): > 100 µM (inactive)
- GI50 (HCT-116): > 100 µM (inactive)
- GI50 (HCT-15): > 100 µM
- GI50 (HOP-62): > 100 µM (inactive)
- GI50 (HOP-92): > 100 µM (inactive)
- GI50 (HT-29): > 100 µM (inactive)
- GI50 (IGROV-1): > 100 µM (inactive)
- GI50 (K562): > 100 µM (inactive)
- GI50 (KM-20L2): > 100 µM (inactive)
- GI50 (KM12): > 100 µM (inactive)
- GI50 (LOX IMVI): > 100 µM (inactive)
- GI50 (LXFL 529): > 100 µM (inactive)
- GI50 (M14): > 100 µM (inactive)
- GI50 (M19-MEL): > 100 µM (inactive)
- GI50 (MOLT-4): > 100 µM (inactive)
- GI50 (Malme-3M): > 100 µM (inactive)
- GI50 (NCI-H226): > 100 µM (inactive)
- GI50 (NCI-H23): > 100 µM (inactive)
- GI50 (NCI-H460): > 100 µM (inactive)
- GI50 (NCI-H522): > 100 µM (inactive)
- GI50 (OVCAR-3): > 100 µM (inactive)
- GI50 (OVCAR-4): > 100 µM (inactive)
- GI50 (OVCAR-5): > 100 µM (inactive)
- GI50 (OVCAR-8): > 100 µM (inactive)
- GI50 (RPMI-8226): > 100 µM (inactive)
- GI50 (RXF 393): > 100 µM (inactive)
- GI50 (SF-268): > 100 µM (inactive)
- GI50 (SF-295): > 100 µM (inactive)
- GI50 (SF-539): > 100 µM (inactive)
- GI50 (SK-MEL-28): > 100 µM (inactive)
- GI50 (SK-MEL-2): > 100 µM (inactive)
- GI50 (SK-MEL-5): > 100 µM (inactive)
- GI50 (SK-OV-3): > 100 µM (inactive)
- GI50 (SN12C): > 100 µM (inactive)
- GI50 (SNB-19): > 100 µM (inactive)
- GI50 (SNB-75): 28.6 µM (inactive)
- GI50 (SNB-78): > 100 µM (inactive)
- GI50 (SW-620): > 100 µM (inactive)
- GI50 (TK-10): > 100 µM (inactive)
- GI50 (U-251): > 100 µM (inactive)
- GI50 (UACC-257): > 100 µM (inactive)
- GI50 (UACC-62): > 100 µM (inactive)
- GI50 (UO-31): > 100 µM (inactive)
- GI50 (XF498): > 100 µM (inactive)

SMILES: CC(=O)NC(CCCNC(=O)OCc1ccccc1)C(=O)NCc1ccccc1 (stereo not given)
- GI50 (786-0): > 100 µM (inactive)
- GI50 (A498): > 100 µM (inactive)
- GI50 (A549): > 100 µM (inactive)
- GI50 (ACHN): > 100 µM (inactive)
- GI50 (CAKI-1): > 100 µM (inactive)
- GI50 (CCRF-CEM): > 100 µM (inactive)
- GI50 (COLO 205): > 100 µM (inactive)
- GI50 (DLD-1): > 100 µM (inactive)
- GI50 (DMS-114): > 100 µM (inactive)
- GI50 (DMS-273): > 100 µM (inactive)
- GI50 (EKVX): > 100 µM (inactive)
- GI50 (HCC 2998): > 100 µM (inactive)
- GI50 (HCT-116): > 100 µM (inactive)
- GI50 (HCT-15): > 100 µM
- GI50 (HOP-62): > 100 µM (inactive)
- GI50 (HOP-92): > 100 µM (inactive)
- GI50 (HT-29): > 100 µM (inactive)
- GI50 (IGROV-1): > 100 µM (inactive)
- GI50 (K562): > 100 µM (inactive)
- GI50 (KM-20L2): > 100 µM (inactive)
- GI50 (KM12): > 100 µM (inactive)
- GI50 (LOX IMVI): > 100 µM (inactive)
- GI50 (LXFL 529): > 100 µM (inactive)
- GI50 (M14): > 100 µM (inactive)
- GI50 (M19-MEL): > 100 µM (inactive)
- GI50 (MOLT-4): > 100 µM (inactive)
- GI50 (Malme-3M): > 100 µM (inactive)
- GI50 (NCI-H226): > 100 µM (inactive)
- GI50 (NCI-H23): > 100 µM (inactive)
- GI50 (NCI-H460): > 100 µM (inactive)
- GI50 (NCI-H522): > 100 µM (inactive)
- GI50 (OVCAR-3): > 100 µM (inactive)
- GI50 (OVCAR-4): > 100 µM (inactive)
- GI50 (OVCAR-5): > 100 µM (inactive)
- GI50 (OVCAR-8): > 100 µM (inactive)
- GI50 (RPMI-8226): > 100 µM (inactive)
- GI50 (RXF 393): > 100 µM (inactive)
- GI50 (SF-268): > 100 µM (inactive)
- GI50 (SF-295): > 100 µM (inactive)
- GI50 (SF-539): > 100 µM (inactive)
- GI50 (SK-MEL-28): > 100 µM (inactive)
- GI50 (SK-MEL-2): > 100 µM (inactive)
- GI50 (SK-MEL-5): > 100 µM (inactive)
- GI50 (SK-OV-3): > 100 µM (inactive)
- GI50 (SN12C): > 100 µM (inactive)
- GI50 (SNB-19): > 100 µM (inactive)
- GI50 (SNB-75): 41.8 µM (inactive)
- GI50 (SW-620): > 100 µM (inactive)
- GI50 (TK-10): > 100 µM (inactive)
- GI50 (U-251): > 100 µM (inactive)
- GI50 (UACC-257): > 100 µM (inactive)
- GI50 (UACC-62): > 100 µM (inactive)
- GI50 (UO-31): > 100 µM (inactive)
- GI50 (XF498): > 100 µM (inactive)
